Reference: patent publication US20240164369A1, “MESENCHYMAL STEM CELLS FOR USE IN INCREASING EX-VIVO ORGAN LIFE” (Amniotics AB, priority 2021, published 2024)

Tests used:
[1] = tested on: T cells among human PBMCs activated with aCD3/aCD28; assay: PBMC:MSC co-culture, T cell activation status after 24 hours (FACS)
Experimental: (§1) Following activation, cells were analysed for effects on cellular composition after 24 hours and for effects on cellular composition and cell proliferation using CFSE after 72 hours. In addition, supernatants collected after 24 hours of activation were analysed for cytokine levels using Luminex.
(§2) Peripheral Blood Mononuclear Cells (PBMCs) were isolated from leucocyte concentrate from three different donors (acquired from Blodcentralen, Lunds Universitetssjukhus, Lund, Sweden) through gradient centrifugation at 400×g for 40 minutes using Ficoll. Red blood cells (RBCs) were lysed using BD Pharmlyse buffer 10× diluted in milliQ water for 3 minutes at room temperature (RT). Cells were washed and the isolated PBMCs were pooled. Cell concentration was determined using a Scepter cell counter (Millipore Merck, MA. USA). Cells were diluted to 1×10^7 cells/ml in PBS. Pooled PBMCs were split into 2 different tubes. Cells in tube 1 was stained with CFSE at 5 μM for 5 minutes (dark, RT). CFSEstained cells were washed with an equal volume of FBS to stop the reaction and washed again with PBS. Cells in tube two was left in PBS. […]
(§3) Following 24 hours of incubation, cells in FACS/Luminex plates were stained with antibodies detecting CD73, CD4, CD8, CD80, CD206, CD163 and PD-1 in staining buffer (PBS supplemented with 1% BSA). […] 150 μl was analysed from each sample.

[2] = tested on: granulocytes and macrophages among human PBMCs activated with aCD3/aCD28; assay: PBMC:MSC co-culture, macrophage activation status after 24 hours (FACS); assay type: cell-based; details: Prednisolone 125 nM
Experimental: as §1, §2, §3

[3] = tested on: T cells among human PBMCs activated with aCD3/aCD28; assay: PBMC:MSC co-culture, T cell composition and CFSE proliferation after 72 hours
Experimental: as §1
(§4) Peripheral Blood Mononuclear Cells (PBMCs) were isolated from leucocyte concentrate from three different donors (acquired from Blodcentralen, Lunds Universitetssjukhus, Lund, Sweden) through gradient centrifugation at 400×g for 40 minutes using Ficoll. Red blood cells (RBCs) were lysed using BD Pharmlyse buffer 10× diluted in milliQ water for 3 minutes at room temperature (RT). Cells were washed and the isolated PBMCs were pooled. Cell concentration was determined using a Scepter cell counter (Millipore Merck, MA. USA). Cells were diluted to 1×10^7 cells/ml in PBS. Pooled PBMCs were split into 2 different tubes. Cells in tube 1 was stained with CFSE at 5 μM for 5 minutes (dark, RT). CFSEstained cells were washed with an equal volume of FBS to stop the reaction and washed again with PBS. Cells in tube two was left in PBS.
When plating controls, cells were spun down and diluted in M3 or M4 at 4*10^6 cells/ml, with a total amount of cells at 4*10^5 cells/well. 100 μl PBMCs were added per well. […] Medium was added to unstimulated control wells (700 μl/well). […]

[4] = tested on: granulocytes and macrophages among human PBMCs activated with aCD3/aCD28; assay: PBMC:MSC co-culture, macrophage composition and CFSE proliferation after 72 hours; assay type: cell-based
Experimental: as §1, §4
When plating controls, cells were spun down and diluted in M3 or M4 at 4*10^6 cells/ml, with a total amount of cells at 4*10^5 cells/well. 100 μl PBMCs were added per well. […] Medium was added to unstimulated control wells (700 μl/well). Cells were incubated for 24 or 72 hours at 37° ° C., 5% CO2. See also FIG. 23.
After 72 hours of incubation, CFSE stained cells were stained with CD4, CD8, CD80, CD206 and CD163 in staining buffer. Briefly, cells were transferred to V bottom plates, centrifuged at 360×g for 2 min. Cells were washed in PBS, centrifuged at 360×g for 2 min at 4° C. Supernatant was flicked off and surface markers were added. Cells were incubated at +4° C. for 20 minutes. After incubation, cells were washed 1× in PBS, centrifuged at 360×g for 2 min at 4° ° C. Cells were resuspended in PBS and acquired using the Attune Nxt flow cytometer. Compensation was performed using beads • AbC Total Compensation capture beads and negative beads for surface markers. For CFSE compensation, newly CFSE stained cells were used. Since compensation was done using both beads and cells, FSC and SSC were changed and adjusted to beads or cells. Lasers were not changed after compensation. 2.3.4 Cytokine Analysis after 24 Hours of Activation (Luminex)
Graphs were performed using Prism 8 for Mac OS X (GraphPad Software, San Diego, CA, USA). Results are presented as mean values±SEM, if not otherwise stated. Dot plots were acquired from analysis using FlowJo v10.6.1 for Mac (BD, New Jersey, USA).

[5] = tested on: human PBMCs activated with aCD3/aCD28; assay: cytokine analysis in co-culture supernatant after 24 hours (Luminex); assay type: cell-based; details: media 3
Experimental: 100 μl PBMCs were added per well. […] See also FIG. 23. Supernatant (24 hours incubation) was analysed for cytokines using the 12-[…]-12 Luminex kit. All reagents, standard and samples were prepared at room temperature and according to manufacturer's instruction. Briefly, 50 μl of standard or sample was added to wells. Microparticles were added to samples and standard and samples were incubated for 2 hours at room temperature on a horizontal orbital shaker (800 rpm). Plate was washed 3× in washing buffer using a magnetic plate. Biotin-antibody was added and incubated dark for 1 hour at room temperature on a horizontal orbital shaker (800 rpm). Plate was washed 3× in washing buffer using a magnetic plate. Streptavidin-PE was added to each well and incubated dark at room temperature on a horizontal orbital shaker (800 rpm) for 30 minutes. Plate was washed 3× in washing buffer using a magnetic plate. Microparticles were resuspended in 100 μl washing buffer, incubated for 2 minutes on a horizontal orbital shaker (800 rpm). Samples were analysed on a Bio-Rad Luminex analyzer.

C[C@]12C=CC(=O)C=C1CC[C@@H]1[C@@H]2[C@@H](O)C[C@@]2(C)[C@H]1CC[C@]2(O)C(=O)CO [Prednisolone]
composition of T helper cells (% CD4+ lymphocytes or MFI of CD4+ lymphocytes) ([1]; 24 hours of incubation, vs control): higher levels | inhibition of T cell activation ([1]; 24 hours, CsA 10 μg/ml, Prednisolone 125 nM): only slightly inhibits | macrophage cell composition [2]: did not have an effect | effect on cytotoxic T cells (%) [3]: no effect | effect on T helper cells (%) ([3]; 72 hours of incubation): no effect | M1 expression levels [4]: no effect | M1 proliferation (CFSE) [4]: No effect | M2 expression levels [4]: no effect | M2 proliferation (CFSE) [4]: No effect | HGF level in supernatant [5]: inhibits | IL-6 level in supernatant [5]: inhibits | IL-12/IL-23 p40 level in supernatant [5]: inhibits | TNF-a level in supernatant [5]: inhibits | the other analysed cytokines, levels in supernatant [5]: No inhibitory effect
